Measured values published in patent publication US7326689B2, “Pseudomycins useful against plant diseases” (Eli Lilly and Company, priority 2000, dated 2008).

What was measured:
Experiment in all cases: Antifungal growth assay in potato dextrose broth, 24-well
Assay type in all cases: cell-based
Set-up in all cases: key: NI, no inhibition; p (partial), at least 50% inhibited
Verticillium dahliae = settings: 2x assays
Procedure, shortened: (§1)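 Inoculation used ~4 mm^2 PDA mycelial blocks, except for M. fijiensis, where ground mycelium in PDB was used because of its slow growth. Compound levels in broth were 50–1.56 ug/ml final. The endpoint was absence of growth versus DMSO control, scored on day 2 and day 5.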

Bipolaris sorokiniana = system: Bipolaris sorokiniana
Procedure, shortened: as §1

Tapesia yallundae = settings: 2x assays
Procedure, shortened: as §1

Alternaria helianthi = settings: 2x assays
Procedure, shortened: as §1

Phyllosticta maydis = system: Phyllosticta maydis
Procedure, shortened: as §1

Phytophthora cinnemani = system: Phytophthora cinnemani
Procedure, shortened: as §1

Phytophthora parasitica = system: Phytophthora parasitica
Procedure, shortened: as §1

Phoma chrysamthecola = settings: five day results
Procedure, shortened: as §1

Cochliobolus carbonum = system: Cochliobolus carbonum
Procedure, shortened: as §1

Fusarium culmorum = system: Fusarium culmorum
Procedure, shortened: as §1

Aphanomyces sp. = settings: 2x assays
Procedure, shortened: as §1

[1] = system: Fusarium oxysporum cubense
Procedure, shortened: as §1

Drechslera teres = system: Drechslera teres
Procedure, shortened: as §1

Substance | lowest level of compound that results in no growth (Verticillium dahliae; five day results) | lowest level of compound that results in no growth (Verticillium dahliae; two day results) | lowest level of compound that results in no growth (Bipolaris sorokiniana; five day results) | lowest level of compound that results in no growth (Bipolaris sorokiniana; two day results) | lowest level of compound that results in no growth (Tapesia yallundae; five day results) | lowest level of compound that results in no growth (Tapesia yallundae; two day results) | lowest level of compound that results in no growth (Alternaria helianthi; five day results) | lowest level of compound that results in no growth (Alternaria helianthi; two day results) | lowest level of compound that results in no growth (Phyllosticta maydis; five day results) | lowest level of compound that results in no growth (Phyllosticta maydis; two day results) | lowest level of compound that results in no growth (Phytophthora cinnemani; five day results) | lowest level of compound that results in no growth (Phytophthora cinnemani; two day results) | lowest level of compound that results in no growth (Phytophthora parasitica; five day results) | lowest level of compound that results in no growth (Phytophthora parasitica; two day results) | lowest level of compound that results in no growth (Phoma chrysamthecola) | lowest level of compound that results in no growth (Cochliobolus carbonum; five day results) | lowest level of compound that results in no growth (Cochliobolus carbonum; two day results) | lowest level of compound that results in no growth (Fusarium culmorum; five day results) | lowest level of compound that results in no growth (Fusarium culmorum; two day results) | lowest level of compound that results in no growth (Aphanomyces sp.; five day results) | other results
Pseudomycin C′ | p at 50 | p at 50 | NI | NI | NI | 6.25 µg/mL | NI | p at 50 | NI | p at 50 | NI | NI | NI | NI | NI | NI | NI | NI | NI | p at 50 | lowest level of compound that results in no growth (Aphanomyces sp.; two day results): 25 µg/mL; lowest level of compound that results in no growth ([1]; five day results): NI; lowest level of compound that results in no growth ([1]; two day results): NI; lowest level of compound that results in no growth (Drechslera teres; five day results): NI; lowest level of compound that results in no growth (Drechslera teres; two day results): NI
Pseudomycin C | p at 50 | 25 µg/mL | NI | NI | NI | 25 µg/mL | NI | p at 50 | NI | p at 50 | NI | NI | NI | NI | NI | NI | NI | NI | NI | 50 µg/mL | lowest level of compound that results in no growth (Aphanomyces sp.; two day results): 25 µg/mL; lowest level of compound that results in no growth ([1]; five day results): NI; lowest level of compound that results in no growth ([1]; two day results): NI; lowest level of compound that results in no growth (Drechslera teres; five day results): NI; lowest level of compound that results in no growth (Drechslera teres; two day results): NI
pseudomycin A-PO4 | p at 50 | p at 50 | NI | NI | 50 µg/mL | 25 µg/mL | 25 µg/mL | 25 µg/mL | NI | p at 50 | NI | NI | NI | NI | NI | NI | NI | NI | NI | p at 50 | lowest level of compound that results in no growth (Aphanomyces sp.; two day results): 50 µg/mL; lowest level of compound that results in no growth ([1]; five day results): NI; lowest level of compound that results in no growth ([1]; two day results): NI; lowest level of compound that results in no growth (Drechslera teres; five day results): NI; lowest level of compound that results in no growth (Drechslera teres; two day results): NI
Pseudomycin B′ | NI | NI | NI | NI | 50 µg/mL | 6.25 µg/mL | 25 µg/mL | 25 µg/mL | NI | p at 50 | NI | NI | NI | NI | p at 50 | NI | NI | NI | NI | NI | lowest level of compound that results in no growth (Aphanomyces sp.; two day results): 25 µg/mL; lowest level of compound that results in no growth ([1]; five day results): NI; lowest level of compound that results in no growth ([1]; two day results): NI; lowest level of compound that results in no growth (Drechslera teres; five day results): NI; lowest level of compound that results in no growth (Drechslera teres; two day results): NI
Pseudomycin B | p at 50 | 25 µg/mL | NI | NI | NI | 25 µg/mL | 50 µg/mL | NI | 50 µg/mL | 50 µg/mL | NI | NI | NI | NI | p at 50 | NI | NI | NI | NI | 50 µg/mL | lowest level of compound that results in no growth (Aphanomyces sp.; two day results): p at 50; lowest level of compound that results in no growth ([1]; five day results): NI; lowest level of compound that results in no growth ([1]; two day results): NI; lowest level of compound that results in no growth (Drechslera teres; five day results): NI; lowest level of compound that results in no growth (Drechslera teres; two day results): NI
pseudomycin A-FB | p at 50 | 50 µg/mL | NI | NI | 25 µg/mL | 12.5 µg/mL | 25 µg/mL | 25 µg/mL | NI | p at 50 | NI | NI | NI | NI | p at 50 | NI | NI | NI | NI | NI | lowest level of compound that results in no growth (Aphanomyces sp.; two day results): NI; lowest level of compound that results in no growth ([1]; five day results): NI; lowest level of compound that results in no growth ([1]; two day results): NI; lowest level of compound that results in no growth (Drechslera teres; five day results): NI; lowest level of compound that results in no growth (Drechslera teres; two day results): NI
